Data on four compounds can be found in publication PMC11862924, “Phenylpyrazoles as Inhibitors of the m^6A RNA-Binding Protein YTHDF2” (JACS Au, 2025).

Experiment [1] relates to K562. The experiment in a line: CCK-8 proliferation assay, K562. Format: cell-based. As to conditions: Homo sapiens, CCK-8 kit assay, triplicates, 72 h, read-out: Anti-proliferation activity against cancer cells (IC50), K562. The protocol:
(§1) The JAR, K562, HCT116, and MOLM13 cells were seeded in 96-well plates (3000 cells/well). After being cultured overnight, compounds were added together with the DMSO treatment (0.1%) as a control. After 72 h, CCK-8 solution (Vazyme, A311) was added, and the cells were incubated at 37 °C for 4 h. The absorbance was measured at 450 nm using a plate reader (TECAN Spark).
Background: Tetrazolium dyes change colour on reduction, which living cells bring about.

Experiment [2] addresses T1, YTHDF2 (residues 383–553) (Homo sapiens, UniProt Q9Y5A9).
T1 construct: A YTHDF2 YTH domain construct (residues 383–553) was subcloned to a pOPIN plasmid; made in house; host or cells: Escherichia coli BL21(DE3)
T1 sequence (Q9Y5A9 383-553): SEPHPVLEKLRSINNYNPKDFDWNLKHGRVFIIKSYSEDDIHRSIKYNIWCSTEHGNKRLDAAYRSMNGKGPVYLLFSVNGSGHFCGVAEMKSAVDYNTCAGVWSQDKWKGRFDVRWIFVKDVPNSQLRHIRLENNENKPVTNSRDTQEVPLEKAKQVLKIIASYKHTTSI
Nature of the experiment: Fluorescence polarization (FP) assay, YTHDF2–m6A RNA interaction. Format: binding. Particulars: 100 μM compound; YTHDF2 (residues 383–553, 20 nM), FAM-labeled m6A RNA probe 5 nM; average ± SD. The protocol:
The FP assay was performed in 384-well black plates (Corning no. 4514) with a total reaction volume of 15 μL. The final concentrations of protein (YTHDF2) and RNA were […], respectively, in a buffer containing 20 mM HEPES/KOH pH 7.5, 50 mM NaCl, 0.005% Tween 20, and 1 mM GSH (DTT). Compounds were incubated with protein, added FAM-m^6A RNA probe ([…](m6)ACUGUG) (purchased from IDT), and incubated at 4 °C for 30 min. The fluorescence polarization was measured using a plate reader (TECAN Spark) under an excitation wavelength of 485 nm and an emission wavelength of 535 nm with a bandwidth of 20 nm. […] The data were determined using GraphPad Prism 9.
Background: Polarisation of emitted light reports the rotation of a fluorescent probe.

The test system of experiment [3] is HCT116. The experiment in a line: CCK-8 proliferation assay, HCT116. Format: cell-based. Particulars: Homo sapiens, HCT-116; CCK-8 kit assay, triplicates, 72 h; read-out: Anti-proliferation activity against cancer cells (IC50), HCT116. As for the experimental part:
as §1

Experiment [4] deals with T2, YTHDF2 (Homo sapiens, UniProt Q9Y5A9).
T2 construct: A YTHDF2 YTH domain construct (residues 383–553) was subcloned to a pOPIN plasmid; made in house; host or cells: Escherichia coli BL21(DE3)
T2 sequence (Q9Y5A9 383-553): T1 sequence (Q9Y5A9 383-553)
Also on record: method as in PMID 37236197. As to conditions: read-out: IC50, YTHDF2, AlphaScreen; cited from earlier work. Background: Alpha assays give light when donor and acceptor beads are brought close together.

In experiment [5] the test system is JAR. Nature of the experiment: CCK-8 proliferation assay, JAR. In kind it is cell-based. As to conditions: Homo sapiens; CCK-8 kit assay, triplicates, 72 h; read-out: Anti-proliferation activity against cancer cells (IC50), JAR. As for the experimental part: as §1
For experiment [6], the target named is T3, YTHDF1 (Homo sapiens, UniProt Q9BYJ9).
T3 construct: Plasmids of the YTH domain of YTHDF1 (residues 375–552); made in house; host or cells: Escherichia coli BL21(DE3); plasmid from the Zhou lab (Boston College)
T3 sequence (Q9BYJ9 375-552): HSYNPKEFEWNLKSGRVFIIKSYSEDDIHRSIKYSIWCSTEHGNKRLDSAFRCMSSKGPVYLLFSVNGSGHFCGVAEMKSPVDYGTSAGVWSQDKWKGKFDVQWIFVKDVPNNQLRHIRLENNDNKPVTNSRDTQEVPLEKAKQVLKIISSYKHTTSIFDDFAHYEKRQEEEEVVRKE
Set-up: method as in PMID 36268123. As to conditions: read-out: EC50, YTHDF1, tryptophan quenching assay; cited from earlier work.

In experiment [7] the target is T2, YTHDF2. Set-up: method as in PMID 36268123. As to conditions: read-out: EC50, YTHDF2, tryptophan quenching assay; cited from earlier work.
Experiment [8] has as its system METTL3. Set-up: method as in PMID 33902106. Particulars: cited from earlier work.

As for `N#C/C(=C\c1ccc(-c2cccc(O)c2)s1)C(N)=O` [DC-Y13–27, reference compound], the IC50 in experiment [1] is 24.5 ± 3.7 µM; in experiment [3], 5.8 ± 0.9 µM; in experiment [4], 21.8 µM; in experiment [5], 33.3 ± 5.6 µM. In addition, the inhibition (in general, the drop in the measured response relative to a control, in per cent) at 100 µM in experiment [2] was 14.2%.
Consider `O=c1c2ccccc2[se]n1-c1ccccc1` [Ebselen], for which the concentration giving a half-maximal response (EC50) (in general, the concentration that produces a half-maximal response) in experiment [6] was 1.6 µM; in experiment [7], 1.7 µM.
As for `O=C(NCc1ccc2cc(CNCC3CCC3)[nH]c2c1)c1cc(=O)n2ccccc2n1` [STC-15], the “inhibitory activity against METTL3 (in words)” value in experiment [8] was “nanomolar inhibitory activity”.
Take STM2457: in experiment [8], the “inhibitory activity against METTL3 (in words)” value was “nanomolar inhibitory activity”.
